Consider two molecules from patent US12630536B2, “Cyanotriazine derivative, preparation method therefor, and application thereof” (Chengdu Fanxi Biopharma Co., LTD., priority 2020, dated 2026).

The test system of assay [1] is TR alpha-UAS-bla HEK 293T Cells. Nature of the assay: TR cell-based agonist detection, β-lactamase reporter (LiveBLAzer FRET B/G), TR alpha. The note with it: Homo sapiens; for Emax: HEK-293T, 24 h, TR_cell-based agonist, TR_α, read-out: Maximum activity ratio; for EC50: Detection of TR_cell-based agonist, HEK 293T-TR alpha, 24 hours, read-out: TR_α_EC50. Here is the method:
(§1) A method for testing a THR-α/β activation activity of a compound by an in-vitro cell level was as follows.
(§2) Compounds were transferred to a 384-well plate by an ECHO liquid workstation, and each compound was diluted by 3 times with 10 gradient concentrations, which was in triplicate. 1.5×10^4 DMEM-cultured cells (TR beta-UAS-bla HEK 293T Cells) or 1.0×10^4 TR alpha-UAS-bla HEK 293T Cells were placed in the 384-well plate. HEK 293T-TR beta was incubated in an incubator for 16 hours, and HEK 293T-TR alpha was incubated in an incubator for 24 hours. A LiveBLAzer™-FRET B/G (CCF4-AM) substrate was added into the cell plate to detect expression of β-lactamase in cells, and under excitation of 409 nm, a product produced fluorescence with a wavelength of 447 nm. When the β-lactamase was not expressed, under excitation of 409 nm, fluorescence with a wavelength of 520 nm was directly produced through FRET. Combination between the compound and the protein was determined by detecting a ratio of the two kinds of fluorescence (blue/green, 460 nm/530 nm), thus calculating EC50 of the compound. […] Calculation of a factor Z (greater than 0.5) would be used for monitoring a stability of each experiment.

Assay [2] deals with TR beta-UAS-bla HEK 293T Cells. Description: TR cell-based agonist detection, β-lactamase reporter (LiveBLAzer FRET B/G), TR beta. The settings on record: for Emax / EC50: Homo sapiens; for Emax: HEK-293T, 16 h, TR_β, read-out: Maximum activity ratio (A460/A530); for EC50: Detection of TR_cell-based agonist, HEK 293T-TR beta, 16 hours, read-out: TR_β_EC50. Here is the method: as §1, §2

Assay [3] deals with golden hamsters fed with high-fat feedstuffs (hyperlipidemia model). Description: In-vivo pharmacodynamic test, high-fat feed hyperlipidemia model. The settings on record: oral once per day, 4 weeks. Here is the method: Administration mode: oral administration was carried out once per day with a time interval of 24 hours for 4 consecutive weeks. During the experiment, the animals were weighed twice per week, and a remaining amount and an adding amount of the feedstuffs were recorded before each blood sampling detection for calculating a food intake of each group of animals during administration.
The food utilization rate represents a weight gain in gram of an animal taking per 100 g of feedstuffs, so that food utilization rate=weight gain (g)/food intake (100 g)×100%.

The target of assay [4] is T1, THR-α ligand-binding domain (H6-THR-α) (Homo sapiens, UniProt P10827).
T1 construct: made in house; host or cells: Escherichia coli BL21 (DE3), vector pET28a
T1 sequence (P10827 148-410 isoform P10827-2 limits assumed): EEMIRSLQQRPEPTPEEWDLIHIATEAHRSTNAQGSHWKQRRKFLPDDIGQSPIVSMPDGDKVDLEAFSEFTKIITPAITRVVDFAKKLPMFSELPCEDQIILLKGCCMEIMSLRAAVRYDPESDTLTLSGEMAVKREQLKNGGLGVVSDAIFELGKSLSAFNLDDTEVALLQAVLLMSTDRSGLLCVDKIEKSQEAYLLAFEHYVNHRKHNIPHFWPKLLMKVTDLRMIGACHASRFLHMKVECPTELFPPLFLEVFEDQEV
T1 sequence (P19793 225-462 partner limits assumed): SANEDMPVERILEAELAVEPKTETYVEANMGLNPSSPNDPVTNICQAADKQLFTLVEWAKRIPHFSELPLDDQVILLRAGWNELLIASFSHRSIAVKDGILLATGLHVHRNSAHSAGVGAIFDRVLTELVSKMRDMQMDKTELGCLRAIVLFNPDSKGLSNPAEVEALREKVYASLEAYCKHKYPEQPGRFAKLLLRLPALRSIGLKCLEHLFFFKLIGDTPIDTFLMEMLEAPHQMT
T1 sequence (Q15596 679-703 partner limits assumed): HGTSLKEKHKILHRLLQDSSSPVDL
Nature of the assay: Co-activated peptide recruitment test of THR-α/RXR/GRIP1 (TR_LBD agonist detection, HTRF). The assay is classed as biochemical. Here is the method: (§3) A ligand binding domain of THR-β (amino acids 148-410) (H6-THR-β) and a ligand binding domain of THR-α (amino acids 202-461) (H6-TRα) were cloned into E. coli expression vector pET28a (Novagen, Milwaukee, Wis.) containing N-terminal six His sequences. The resulting recombinant six-His-tagged protein was produced in E. coli BL21(DE3) cells. The cells were grown in Terrific Broth (self-used self-prepared Bacto tryptone (3.3%, w/v), Difico yeast extract (2.0%, w/v) and NaCl (0.5%, w/v) medium), incubated at 25° C. for 24 hours using a shake flask in 0.2 mM IPTG, harvested or dissolved with 5 volumes of buffer A (0.05 M Tris, 0.3 M NaCl, 1% W/V betaine, 0.01 M imidazole, 0.02 M b-mercaptoethanol, pH 8.0). Lysozyme (1.0 mg/ml, Sigma) and CompleteProtease Inhibitor Cocktail (Roche Diagnostics Gmbh) were added to the slurry and the solution was sonicated for one minute and 5 times at 4° C. The suspension was centrifuged at 127,300 RCF for 2 hours in a Ti45 Beckmann rotor and the supernatant was loaded onto an NI NTAAgarose (Quigen 30210) column. After washing with the buffer A, […] or H6-THR-α was eluted with the buffer A containing 0.25 M imidazole.
(§4) 30 microliters of H6-THR-β (50 nM) or H6-THR-α in 50 mM Hepes, pH 7.0, 1 mM DTT, 0.05% NP40 and 0.2 mg/ml BSA (binding buffer) were mixed with an equal volume of EE-RxRα (50 nM) in the binding buffer. […] Aliquot ([…]) was transferred to a 384-well black microtiter plate. HTRF signal was read on a Victor5 reader (PerkinElmer Life and Analytical Sciences). EC50 was calculated.
(§5) Gene clones expressing a ligand-binding domain (amino acids 148-410) of THR-β (H6-THR-β) and a ligand-binding domain (amino acids 202-461) of THR-α (H6-THR-α) were inserted into an Escherichia coli expression vector pET28a, and the expression vector contained one N-terminal 6-His sequence. The expression vector was introduced into an Escherichia coli BL21 (DE3) strain to produce a recombinant protein with a His tag. […] After finishing culturing, a bacterium in culture was collected, and the collected bacterium was resuspended with a lysis solution (0.05 M Tris, 0.3 M NaCl, 1% W/V betaine, 0.01 M imidazole, 0.02 M β-mercaptoethanol, and pH 8.0) with a volume 5 times that of the bacterium, and lysozyme and protease inhibitors were added at the same time, the treated bacteria was subjected to ultrasonic lysis (5 times per minute) in ice bath (4° C.). A lysed suspension was centrifuged at 127300 RCF for 2 hours, a supernatant was loaded on a NI_NTA agarose (Quigen 30210) column, and after washing with a buffer A, an H6-TRβ or H6-TRα protein was eluted with the buffer A containing 0.25 M imidazole.
(§6) A human retinol X receptor (amino acid 225-462) (RxRα) was subjected to engineering modification, so that an N-terminal of the human retinol X receptor had His6 and EE(EFMPME) tags, and then the human retinol X receptor was cloned into a pACYC vector, and produced a His6 EEtagged protein in Escherichia coli. IPTG with a final concentration of 0.1 mM was added into the culture medium for induction, and cultured in a shaking flask at 18° C. for 18 hours. After finishing culturing, a bacterium in culture was collected, and the collected bacterium was re-suspended with a lysis solution (0.05 M Tris, 0.3 M NaCl, 1% W/V betaine, 0.01 M imidazole, 0.02 β-mercaptoethanol, and pH 8.0) with a volume 5 times that of the bacterium, lysozyme and protease inhibitors were added at the same time, and stirred at 4° C. for 30 minutes. Then, a suspension was subjected to an ultrasonic treatment at 4° C. for 30 seconds for 5 times. The suspension was collected, and centrifuged at 12000 RCF for 20 minutes. A supernatant was collected, and the supernatant was filtered with a membrane with a pore size of 0.45 μm, and then added with 0.5% NP-40.
Background: Time-resolved FRET reads energy transfer from a long-lived donor to a nearby acceptor.

Assay [5] concerns the target T2, THR-β ligand-binding domain (H6-THR-β) (Homo sapiens, UniProt P10828).
T2 construct: made in house; host or cells: Escherichia coli BL21 (DE3), vector pET28a
T2 sequence (P10828 217-461 limits assumed): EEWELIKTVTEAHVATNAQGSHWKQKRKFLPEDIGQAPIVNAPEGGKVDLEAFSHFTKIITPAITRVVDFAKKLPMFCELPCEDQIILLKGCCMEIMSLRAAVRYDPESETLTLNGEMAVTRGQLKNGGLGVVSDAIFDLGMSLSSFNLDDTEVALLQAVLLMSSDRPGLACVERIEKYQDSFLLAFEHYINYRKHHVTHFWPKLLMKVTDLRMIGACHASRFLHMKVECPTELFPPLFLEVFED
T2 sequence (P19793 225-462 partner limits assumed): T1 sequence (P19793 225-462 partner limits assumed)
T2 sequence (Q15596 679-703 partner limits assumed): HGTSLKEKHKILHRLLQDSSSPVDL
Description: Co-activated peptide recruitment test of THR-β/RXR/GRIP1 (TR_LBD agonist detection, HTRF). The assay is classed as biochemical. Here is the method:
as §3, §4, §5, §6

Some results are limits rather than exact numbers.

Consider `CC(C)c1cc(Oc2c(Cl)cc(-n3nc(C#N)c(=O)[nH]c3=O)cc2Cl)n[nH]c1=O` [MGL3196, reference compound], for which the Emax in assay [1] turned out to be 134%; in assay [2] (TR_cell-based agonist), 37.7%. Besides, the values for the EC50 in assay [1] and in assay [2] were 2770 nM and 1050 nM, respectively. The α/β in assay [2] (TR_cell-based agonist, ratio TR_α EC50 / TR_β EC50) turned out to be 2.62. The “food utilization rate (weight gain (g)/food intake (100 g)×100%)” value in assay [3] is “increased to some extent”.

`Cn1c(CCc2ccccc2)nc2cc(Oc3c(Cl)cc(-n4nc(C#N)c(=O)[nH]c4=O)cc3Cl)ccc21` [Compound 9, 2-(3,5-dichloro-4-((1-methyl-2-phenethyl-1H-benzo[d]imidazol-5-yl)oxy)phenyl)-3,5-dioxo-2,3,4,5-tetrahydro-1,2,4-triazine-6-carbonitrile]: the EC50 was more than 5000 nM in assay [4] (Detection of TR_LBD agonist, read-out: TR_α_EC50); 14.8 nM in assay [5] (Detection of TR_LBD agonist, read-out: TR_beta_EC50); more than 20000 nM in assay [1]; more than 20000 nM in assay [2]. Moreover, the “Maximum activity ratio (A520/A495)” value in assay [4] (TR_LBD agonist, TR_α) is listed as 1.39; in assay [5] (TR_LBD agonist, TR_β) it was 1.84. For the same molecule, the “Measurement of cpd/T3 (maximum ratio)” value in assay [5] (TR_LBD agonist, TR_β, maximum relative to T3) is 33.6%. The α/β in assay [5] (TR_LBD agonist, ratio TR_α EC50 / TR_β EC50) is given as more than 337.84. In addition, the results for the Emax in assay [1] and in assay [2] (TR_cell-based agonist) were 31% and 20.4%, respectively.
